Laboratory results as given in publication PMC10762068, “Selective blockade of Cav1.2 (α1C) versus Cav1.3 (α1D) L-type calcium channels by the black mamba toxin calciseptine” (Nature Communications, 2024).
Positions of bridges follow the written chain, without caps; N, C: chain ends. No end group written: not given here.

What was measured:
[1] = tested on: total ICaL (ICav1.2+ICav1.3) in SAN myocytes from wild-type mice; assay: ICaL, patch clamp, SAN myocytes from wild-type mice; type: cell-based, mouse; settings: for L-type Ca2+ current density: Cas 1 µM alone or + Nife 3 µM, n=8
Experimental: Hearts from Wild-Type and Cav1.3^−/− mice were removed under general anesthesia consisting of 0.01 mg/g xylazine (2% Rompun; Bayer AG) and 0.1 mg/g ketamine (Imalgène;Merial) and immersed in a pre-warmed (36 °C) Tyrode solution containing (mM): 140 NaCl, 5.4 KCl, 1 MgCl2, 1.8 CaCl2, 5.5 D-glucose, and 5 Hepes (adjusted to pH 7.4 with NaOH). […] SAN tissue was excised and transferred into a low-Ca^2+ solution containing (mM): 140 NaCl, 5.4 KCl, 0.5 MgCl2, 0.2 CaCl2, 1.2 KH2PO4, 50 taurine, 5.5 D-glucose, 1 mg/mL BSA, and 5 Hepes–NaOH (adjusted to pH 6.9 with NaOH) for 5 min. Then, enzymatic digestion was carried out for 20-25 min at 36 °C in the low-Ca^2+ solution containing LiberaseTH Research Grade (0.15 mg/mL; Roche, Mannheim, Germany) and elastase (0.5 mg/mL; Worthington, Lakewood, NJ, USA). Digestion was stopped by washing the SAN in a “Kraftbrühe” (KB) medium containing (mM) 100 K-glutamate, 10 K-aspartate, 25 KCl, 10 KH2PO4, 2 MgSO4, 20 taurine, 5 creatine, 0.5 EGTA, 20 D-glucose, 5 Hepes, and 1 mg/mL BSA (adjusted to pH 7.2 with KOH). Single SAN cells were then dissociated from the SAN tissue by manual agitation using a flame-forged Pasteur’s pipette. To recover the automaticity of the SAN cells, Ca^2+ was gradually reintroduced in the cell’s storage solution to a final concentration of 1.8 mM. SAN cells were then left to rest for 1 h before recordings.
For patch-clamp recordings of SAN myocytes, cells were harvested in custom-made chambers with glass bottoms for cell attachment. Cells were then super-fused with Tyrode’s solution warmed at 36 °C before recording. Action potentials and ionic currents were recorded using an Axon multi-clamp patch-clamp 700B amplifier. Voltage-gated L-type Ca^2+ currents (ICaL) were recorded using standard whole cell patch-clamp configuration. For recording ICaL, we used an extracellular recording solution contained (mM): 135 tetraethylammonium chloride (TEA-Cl), 10 4-aminopyridine (4-AP), 1 MgCl2, 0.03 tetrodotoxin (TTX), 1 g/L Glucose, 2 CaCl2, 10 Hepes, (adjusted to pH = 7.2 with TEAOH). […] Pacemaker activity was recorded by the perforated patch-clamp technique using escin (40 µg/ml). For recording cell automaticity glass pipettes were filled with the intracellular solution contained (mM): 80 K-Aspartate, 50 KCl, 1 MgCl2, 5 HEPES, 2 CaCl2, 5 EGTA, 3 ATP-Na+ salt; pH was adjusted to 7.2 with KOH. Escin was dissolved in sterile H2O and added to the intracellular solution right before each experiment.
(§1) In all experiments of cellular electrophysiology, we employed synthetized analog of Cas, commercially available at Latoxan (ID: L8109). The native peptide was purified from the venom of Dendroaspis polylepis purchased from Latoxan, as previoulsly described. The pure peptide was obtained after gel filtration, cation exchange and C18 reversed phase chromatography. Its measured molecular mass (7036.26 Da average) was in accordance with the mass calculated from sequence data (7036.22 Da).

[2] = tested on: DHP binding site, brain synaptosomes; settings: at a rather high concentration; cited from earlier work
Text: DHPs are prototypical organic blockers of L-type calcium channels widely used in therapeutical applications.

Cav1.3_42a = assay: Whole cell recording of ICav1.3-42a in HEK-293T cells; type: cell-based; settings: for L-type Ca2+ current density: mean ± SEM, n=9
Experimental: HEK-293T (RRID:CVCL_2737) were obtained from the European Collection of Authenticated Cell Cultures (ECACC 96121229). The identity of HEK-293T has been confirmed by STR profiling and the cells have been eradicated from mycoplasma at ECACC. We routinely tested the cells for the absence of the mycoplasma contamination. Cells were cultivated at 37 °C in DMEM supplemented with GlutaMax, 10% fetal bovine serum and 1% penicillin/streptomycin (Invitrogen, Fisher Scientific, France). Transfections were performed using jet-PEI (Ozyme, France) with a DNA mix containing either the plasmids that code for Cav1.2-GFP, β2a and α2δ (0.8 µg of each) or either the plasmids that code for Cav1.3 (with and without exon 42a), or Cav2.1, or either Cav2.2 combined with β2a and α2δ (0.8 µg of each supplemented with 0.025 µg of a plasmid coding for GFP). For Cav3.1 expression β2a and α2δ subunits were omitted. Plasmids coding for β2a, α2δ and Cav1.3 were created as described previously. Plasmid coding for Cav1.2-GFP was obtained from Dr. Catalucci[60]. After transfection cells were placed at 30 °C for 2–3 days and dissociated with Versene (Invitrogen, Fisher Scientific, France) and plated at a density of ~35 × 10^3 cells per 35 mm Petri dish for electrophysiological recordings, which were performed the following day.
Macroscopic currents in HEK-293T cells were recorded at room temperature using an Axopatch 200B or Multiclamp 700B patchclamp amplifier (Molecular Devices, Sunnyvale CA). […] The extracellular solution contained (in mM): 135 NaCl, 20 TEACl, 5 BaCl2, 1 MgCl2, and 10 HEPES (pH adjusted to 7.25 with KOH, ~330 mOsm).
as §1

RICYIHKASLPRATKTCVENTCYKMFIRTQREYISERGCGCPTAMWPYQTECCKGDRCNK (disulfide 3-22, 17-39, 41-52, 53-58 (inferred)) [Cas, calciseptine]
L-type Ca2+ current density ([1]; 0 mV, Ctrl -8.45± 1.02): -3.87± 0.71 pA/pF
L-type Ca2+ current density ([1]; +20 mV, Ctrl -5.09± 0.81): -1.53± 0.56 pA/pF
L-type Ca2+ current density ([1]; -10 mV, Ctrl -8.20± 1.10): -4.24± 0.77 pA/pF
L-type Ca2+ current density ([1]; -20 mV, Ctrl -5.61± 0.91): -3.37± 0.54 pA/pF
L-type Ca2+ current density ([1]; -25 mV, Ctrl -3.96± 0.71): -2.46± 0.48 pA/pF
L-type Ca2+ current density ([1]; -30 mV, Ctrl -2.44± 0.47): -1.49± 0.38 pA/pF
L-type Ca2+ current density ([1]; -35 mV, Ctrl -1.18± 0.29): -0.90± 0.24 pA/pF
reduction of total ICaL ([1]; Wild-Type SAN myocytes, voltage clamp): around 45%
inhibition of DHP binding [2]: could inhibit binding of DHPs
effect on ICav1.3-42a (I-V relationship) (Cav1.3_42a; Cas 300 nM, all voltages tested, at peak p = 0.8148, n=9/N=4): no significant effect
L-type Ca2+ current density (Cav1.3_42a; Cas 300 nM, 0 mV, Ctrl -20.06± 5.37): -19.52± 4.21 pA/pF
L-type Ca2+ current density (Cav1.3_42a; Cas 300 nM, +10 mV, Ctrl -13.99± 3.71): -13.16± 2.99 pA/pF
L-type Ca2+ current density (Cav1.3_42a; Cas 300 nM, +20 mV, Ctrl -7.80± 2.21): -6.44± 1.89 pA/pF
L-type Ca2+ current density (Cav1.3_42a; Cas 300 nM, +30 mV, Ctrl -2.75± 1.09): -1.13± 1.30 pA/pF
L-type Ca2+ current density (Cav1.3_42a; Cas 300 nM, -10 mV, Ctrl -24.04± 6.83): -23.42± 5.08 pA/pF
L-type Ca2+ current density (Cav1.3_42a; Cas 300 nM, -20 mV, Ctrl -21.97± 6.85): -21.55± 4.86 pA/pF
reduction of ICav1.3-42a (Cav1.3_42a; all concentrations tested (up to 1 µM), holding −60 mV, step 0 mV, 300 nM n=13/N=4, 1 µM n=8/N=4): did not record a statistically significant reduction
